Values joined by “and” are separate entries in the source; they are usually repeats but may differ in a detail not shown here. Equal entries are not always repeated. Where two headings read alike, the source gives them in different places.
Assays:
[1] = tested on: HEK293-STF3A cells; experiment: STF3A assay (Wnt reporter luciferase); format: cell-based; conditions: Homo sapiens, 24 h, 1 day of treatment, read-out: IC50 activities on STF3A cells
Protocol: HEK293-STF cell line was modified from Human embryonic kidney cell line HEK293 transfected with the STF reporter. HEK293-STF3 A cell line was further modified from HEK293-STF cell line to express Wnt3A. This cell line was used to identify compounds that regulate either early or late signalling components of the Wnt pathway. L-Wnt3 A (ATCC, #CRL-2647) cell line was used for providing Wnt3 A conditioned media. The three cell lines were grown in DMEM (Dulbecco's Modified Eagle Medium) with 10% FBS (fetal bovine serum) incubated in 37° C. with 5% CO2.
2×10^4 HEK293-STF3A cells in 75 μl culture media were seeded in each well of white 96 well plates (Greiner #655098) and incubated overnight at 37° C. 25 μl serially diluted compound was added to the cells to give final concentration of 50 μM to 1.5 nM. After 1 day of treatment, 100 μl of Steady-Glo® Luciferase Assay reagent (#E2520, Promega) was added to each well and incubated for 10 minutes at room temperature. Luminescence was measured using Tecan Safire2® plate reader.

[2] = Plasma pharmacokinetics after single intravenous and oral dose; format: in vivo, male BALB/c mice
Protocol: The objective of this study was to investigate the plasma pharmacokinetics of Compound 1 in male BALB/c mice following a single intravenous and oral dose administration. A group of eighteen male mice were divided in to two groups as Group 1 and Group 2 with nine mice in each group.
Animals in Group 1 were administered intravenously with Compound 1 solution formulation in 7.5% NMP, 5% Solutol HS-15 and 87.5% normal Saline at a dose of 1 mg/kg.
Animals in Group 2 were administered orally with Compound 1 solution formulation in 7.5% NMP, 5% Solutol HS-15 and 87.5% normal Saline at a dose of 5 mg/kg.
Blood samples (approximately 60 μL) were collected under light isoflurane anesthesia from retro orbital plexus at predose, 0.08, 0.25, 0.5, 1, 2, 4, 8 and 24 hr (IV) and predose, 0.25, 0.5, 1, 2, 4, 6, 8 and 24 hr (PO). During each sampling point, blood samples were collected in labeled pre-chilled tubes containing K2EDTA (20% K2EDTA solution) as an anticoagulant and protease inhibitor (10 μL of 10× solution/100 μL of blood). Low temperature was maintained till storage of plasma at −70° C. Plasma samples were separated by centrifugation of whole blood and stored below −70° C. until bioanalysis. All samples were processed for analysis by protein precipitation using acetonitrile (ACN) and analyzed with fit-for-purpose LC/MS/MS method (Lower limit of quantitation (LLOQ: 1.02 ng/mL). Pharmacokinetic parameters were calculated using the non-compartmental analysis tool of Phoenix WinNonlin® (Version 6.3). The overall pharmacokinetic parameters are summarized below:
The objective of the study is to determine the plasma pharmacokinetics of Compound 1 in male BALB/c mice following a single intravenous (1 mg/kg) and oral (5 mg/kg) administration in presence of a protease inhibitor.
A group of eighteen male mice were divided in to two groups as Group 1 and Group 2 with nine mice in each group. Animals in Group 1 were administered intravenously with Compound 1 solution formulation in 7.5% NMP, 5% Solutol HS-15 and 87.5% normal Saline at a dose of 1 mg/kg. Animals in Group 2 were administered orally with Compound 1 solution formulation in 7.5% NMP, 5% Solutol HS and 87.5% normal Saline at a dose of 5 mg/kg.
The dosing volume administered was 5 mL/kg for intravenous and 10 mL/kg for oral administration.
Blood samples (approximately 60 μL) were collected from retro-orbital plexus of three mice at each time point [predose, 0.08, 0.25, 0.5, 1, 2, 4, 8 and 24 hr (IV) and predose, 0.25, 0.5, 1, 2, 4, 6, 8 and 24 hr (PO)]. During each sampling point, blood samples were collected in labeled pre-chilled tubes containing K2EDTA (20% K2EDTA solution) as an anticoagulant and protease inhibitor (10 μL of 10× solution/100 μL of blood). Low temperature was maintained till storage of plasma at −70° C. Plasma was immediately harvested from the blood by centrifugation at 4000 rpm for 10 min at 4±2° C. and stored below −70° C. until bioanalysis. Preparation of protease inhibitor solution: One tablet of sigmaFAST (Product Code: 58820) was reconstituted into 10 mL of Milli-Q water to prepare 10× solution.
Concentrations of Compound 1 in mouse plasma samples were determined by fit-for-purpose LC-MS/MS method. The sample processing and extraction procedure, chromatographic and mass spectrometric conditions are provided below:
A 25 μL of study sample (DF was applied for few samples) or spiked plasma calibration standard was added to individual pre-labeled micro-centrifuge tubes followed by 100 μL of internal standard prepared in acetonitrile (Glipizide, 500 ng/mL) was added except for blank, where 100 μL of acetonitrile was added. Samples were vortexed for 5 minutes. Samples were centrifuged for 10 minutes at a speed of 4000 rpm at 4° C. Following centrifugation, 100 μL of clear supernatant was transferred in 96 well plates and analyzed using LC-MS/MS.
Non-Compartmental-Analysis tool of Phoenix WinNonlin® (Version 6.3) was used to assess the pharmacokinetic parameters. […]

- Vss relative to normal volume of total body water (0.7 L/kg) ([2]; IV 1 mg/kg): ~2 fold
- Plasma concentration, individual animals ([2]; IV 1 mg/kg, 0.25 hr, 1 mg/kg): 1.05234 µg/mL and 1.04827 µg/mL
- Plasma concentration, individual animals ([2]; IV 1 mg/kg, 0.5 hr, 1 mg/kg): 0.89926 µg/mL and 0.89459 µg/mL
- Plasma concentration, individual animals ([2]; IV 1 mg/kg, 2 hr, 1 mg/kg): 0.06016 µg/mL and 0.04949 µg/mL
- Plasma concentration, individual animals ([2]; IV 1 mg/kg, 4 hr, 1 mg/kg): 0.03794 µg/mL and 0.0271 µg/mL
- Plasma concentration, individual animals ([2]; IV 1 mg/kg, 24 hr, below LLOQ considered zero, 1 mg/kg): 0.00136 µg/mL and 0.0011 µg/mL and 0 µg/mL
- CL (expressed as CLf) ([2]; PO 5 mg/kg): 1.604 L/h/kg
- Vss (expressed as Vz) ([2]; PO 5 mg/kg): 7.55 L/kg
- Time up to which plasma concentrations were quantifiable ([2]; PO 5 mg/kg, 2 animals out of 3, LLOQ 1.02 ng/mL): up to 24 hr
- Plasma concentration, individual animals ([2]; PO 5 mg/kg, 0.25 hr, 5 mg/kg): 2.4508 µg/mL and 1.42654 µg/mL
- Plasma concentration, individual animals ([2]; PO 5 mg/kg, 1 hr, 5 mg/kg): 0.47433 µg/mL and 0.43352 µg/mL
- Plasma concentration, individual animals ([2]; PO 5 mg/kg, 2 hr, 5 mg/kg): 0.33178 µg/mL and 0.36508 µg/mL
- Plasma concentration, individual animals ([2]; PO 5 mg/kg, 6 hr, 5 mg/kg): 0.11077 µg/mL and 0.08154 µg/mL
- Plasma concentration, individual animals ([2]; PO 5 mg/kg, 8 hr, 5 mg/kg): 0.04128 µg/mL and 0.05322 µg/mL
- Plasma concentration, individual animals ([2]; PO 5 mg/kg, 24 hr, below LLOQ considered zero, 5 mg/kg): 0 µg/mL and 0.00128 µg/mL and 0.00231 µg/mL
- concentration at 0.08 hr ([2]; male, BALB/c, mouse, plasma, iv, 1 mg/kg, IV 1 mg/kg, 0.08 hr): 2 µg/mL
- concentration at 0.25 hr ([2]; male, BALB/c, mouse, plasma, iv, 1 mg/kg, IV 1 mg/kg, 0.25 hr, read-out: Plasma concentration, Mean): 1.02 µg/mL
- concentration at 0.25 hr ([2]; male, BALB/c, mouse, plasma, iv, 1 mg/kg, IV 1 mg/kg, 0.25 hr, read-out: Plasma concentration, individual animals): 0.948 µg/mL
- concentration at 0.5 hr ([2]; male, BALB/c, mouse, plasma, iv, 1 mg/kg, IV 1 mg/kg, 0.5 hr, read-out: Plasma concentration, Mean): 0.915 µg/mL
- concentration at 0.5 hr ([2]; male, BALB/c, mouse, plasma, iv, 1 mg/kg, IV 1 mg/kg, 0.5 hr, read-out: Plasma concentration, individual animals): 0.952 µg/mL
- concentration at 1 hr ([2]; male, BALB/c, mouse, plasma, iv, 1 mg/kg, IV 1 mg/kg, 1 hr, read-out: Plasma concentration, Mean): 0.306 µg/mL
- concentration at 2 hr ([2]; male, BALB/c, mouse, plasma, iv, 1 mg/kg, IV 1 mg/kg, 2 hr, read-out: Plasma concentration, Mean): 0.0507 µg/mL
- concentration at 2 hr ([2]; male, BALB/c, mouse, plasma, iv, 1 mg/kg, IV 1 mg/kg, 2 hr, read-out: Plasma concentration, individual animals): 0.0425 µg/mL
SMILES: Cn1c(=O)c2c(ncn2CC(=O)Nc2ccc(-c3ccccc3O)nn2)n(C)c1=O [Compound 1, 2-(1,3-dimethyl-2,6-dioxo-1,2,3,6-tetrahydro-7H-purin-7-yl)-N-(6-(2-hydroxyphenyl)pyridazin-3-yl)acetamide]
- IC50 [1]: 9 nM
- Plasma concentration, individual animals ([2]; IV 1 mg/kg, 0.08 hr, 1 mg/kg): 1.2205 µg/mL and 2.5412 µg/mL and 2.23392 µg/mL
- Plasma concentration, individual animals ([2]; IV 1 mg/kg, 1 hr, 1 mg/kg): 0.15152 µg/mL and 0.49644 µg/mL and 0.2689 µg/mL
- Plasma concentration, individual animals ([2]; IV 1 mg/kg, 8 hr, 1 mg/kg): 0.00659 µg/mL and 0.02795 µg/mL and 0.00894 µg/mL
- Plasma concentration, individual animals ([2]; PO 5 mg/kg, 0.5 hr, 5 mg/kg): 2.16746 µg/mL and 1.89877 µg/mL and 1.07015 µg/mL
- Plasma concentration, individual animals ([2]; PO 5 mg/kg, 4 hr, 5 mg/kg): 0.08692 µg/mL and 0.50347 µg/mL and 0.05961 µg/mL
